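Briefly, cells in 96-well plates were exposed to five compound concentrations for 48 h, and endpoints were estimated by linear interpolation. TGI: total growth inhibition.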
What was measured:
Assay in all cases: growth of human tumour cells (NCI), 48 h
CAKI-1 renal = test system: CAKI-1 renal
NCI-H226 lung = test system: NCI-H226 lung
MOLT-4 leukemia = test system: MOLT-4 leukemia
M14 melanoma = test system: M14 melanoma
COLO 205 colon = test system: COLO 205 colon
K-562 leukemia = test system: K-562 leukemia
CCRF-CEM leukemia = test system: CCRF-CEM leukemia
DMS 114 small cell lung = test system: DMS 114 small cell lung
TK-10 renal = test system: TK-10 renal
OVCAR-4 ovarian = test system: OVCAR-4 ovarian
OVCAR-3 ovarian = test system: OVCAR-3 ovarian
NCI-H23 lung = test system: NCI-H23 lung
SK-MEL-5 melanoma = test system: SK-MEL-5 melanoma
OVCAR-8 ovarian = test system: OVCAR-8 ovarian
SN12C renal = test system: SN12C renal
BT-549 breast = test system: BT-549 breast
DU-145 prostate = test system: DU-145 prostate
SK-MEL-2 melanoma = test system: SK-MEL-2 melanoma
MCF7 breast = test system: MCF7 breast
NCI/ADR-RES ovarian = test system: NCI/ADR-RES ovarian

| SMILES | TGI (CAKI-1 renal) [µM] | TGI (NCI-H226 lung) [µM] | TGI (MOLT-4 leukemia) [µM] | TGI (M14 melanoma) [µM] | TGI (COLO 205 colon) [µM] | TGI (K-562 leukemia) [µM] | TGI (CCRF-CEM leukemia) [µM] | TGI (DMS 114 small cell lung) [µM] | TGI (TK-10 renal) [µM] | TGI (OVCAR-4 ovarian) [µM] | TGI (OVCAR-3 ovarian) [µM] | TGI (NCI-H23 lung) [µM] | TGI (SK-MEL-5 melanoma) [µM] | TGI (OVCAR-8 ovarian) [µM] | TGI (SN12C renal) [µM] | TGI (BT-549 breast) [µM] | TGI (DU-145 prostate) [µM] | TGI (SK-MEL-2 melanoma) [µM] | TGI (MCF7 breast) [µM] | TGI (NCI/ADR-RES ovarian) [µM] |
| --- | --- | --- | --- | --- | --- | --- | --- | --- | --- | --- | --- | --- | --- | --- | --- | --- | --- | --- | --- | --- |
| COc1cc(/C=C\c2cccnc2)cc(OC)c1OC | > 100 | > 100 | 43.1 | 97.2 | 69 | > 100 | > 100 | > 100 | > 100 | > 100 | > 100 | > 100 | 40.8 | > 100 | > 100 |  |  |  |  |  |
| COC(=O)/C=C(/OC)[C@H](C)[C@H](/C=C/c1csc(-c2csc(C(C)C)n2)n1)OC | > 100 | > 100 | > 100 | > 100 | > 100 | > 100 | > 100 |  | > 100 | > 100 | > 56.3 | > 100 | 19.9 | > 100 | > 100 | > 100 | > 100 | > 100 | > 100 | > 100 |
| Cc1ccc2[nH]c3c(c2c1)C1CCC(C(C)(C)C)CC1C1C(=O)N(c2ccc4c(c2)OCO4)C(=O)C31 (stereo not drawn) | 5.54 | 8.58 | 4.25 | 17.2 | 12.5 | 9.62 | 3.81 |  | 4.32 | 3.62 | 3.08 | 18.3 | 22.9 | 4.28 | 4.96 | 20.6 | 9.88 | 19.3 | 12.4 | 10.2 |
| COc1cc(/C=C2\C(=O)N(C(=O)c3ccc(NC(C)=O)cc3)N=C2C)ccc1O | > 100 | > 100 | > 100 | > 100 | > 100 | > 100 | > 100 | > 100 | > 100 | > 100 | > 100 | > 100 | > 100 | > 100 | > 100 |  |  |  |  |  |
| O=c1[nH]cnc2c1CCCN2 | > 100 |  | > 100 | > 100 | > 100 | > 100 | > 100 | > 100 | > 100 |  | > 100 | > 100 | > 100 | > 100 | > 100 |  |  | > 100 |  |  |
| Cc1nn(-c2nc3ccccc3s2)c2c1C(=O)c1ccccc1-2 |  |  |  | > 100 | > 100 | > 100 |  | > 100 | > 100 | 64.1 | > 100 | > 100 | > 100 |  | > 100 |  |  | > 100 |  |  |
| CC(=O)N1CC(=O)N2C(=O)/C(=C/c3ccc(Cl)cc3)N=C12 | > 100 | > 100 | > 100 | > 100 | > 100 | > 100 | > 100 |  | > 100 | > 100 | > 100 | > 100 | > 100 | > 100 | > 100 | > 100 | > 100 | > 100 | > 100 | > 100 |
| CCOc1ccc(NC(=O)C2=C(C)NC(C)=C(C(=O)Nc3ccc(OCC)cc3)C2c2ccccc2)cc1 | > 100 | > 100 | > 100 | > 100 | > 100 | > 100 | > 100 | > 100 | > 100 | > 100 | > 100 | > 100 | > 100 | > 100 | > 100 |  |  | > 100 |  |  |

Source: PubChem BioAssay (NCI)
